Read-outs that look alike come from different tables or passages of the source.
Assays:
[1] = tested on: TMD8-BTK(C481S) cells; test: Inhibitory activity on TMD8-BTK(C481S) cell proliferation (CCK-8); type: cell-based; details: 72 h incubation
Procedure: (§1) TMD8-BTK(C481S) cells in a good growth state were collected and added to a centrifuge tube, adjusted to a cell density of 8×10^4 cells/mL, and seeded in a 96-well plate (100 μL/well). The cells were incubated overnight in a cell incubator. Compounds were added using a nanoliter pipettor such that the final concentrations of the compounds were 5000 nM-0.31 nM; the addition was performed in duplicate, and meanwhile, a control was set. After another 72 h of incubation in the cell incubator, 10 μL of CCK-8 (CK04, PP799) was added. After 4 h of incubation in the cell incubator, absorbance values were detected at 450 nm using an Envision microplate reader, the four-parameter analysis was performed, the dose-response curves were fit, and IC50 was calculated.

[2] = molecular target: BTK (Homo sapiens (Human), UniProt Q06187); test: BTK degradation in OCI-LY10 cells (Total-BTK HTRF kit); type: cell-based; details: 24 (or 6) h incubation; for DC50: DC50 = concentration when degradation rate reaches 50%, read-out: OCI-LY10 cell BTK degradation DC50; for Dmax / BTK degradation in OCI-LY10 cells Dmax: maximum degradation rate
Procedure: The detection was carried out using the Total-BTK Kits (cisbio, 63ADK064PEH), and 4× Supplemented Lysis buffer was prepared using the Blocking reagent stock solution (100×) and Lysis buffer stock solution (4×). Premixed antibody solutions were prepared using the Detection buffer, Total-BTK d2 antibody, and Total-BTK Eu Cryptate antibody.
OCI-LY10 cells in a good growth state were collected and added to a centrifuge tube, adjusted to a cell density of 4.17×10^6 cells/mL, and seeded in a 384-well plate (12 μL/well). The cells were incubated overnight in a cell incubator. Compounds were added using a nanoliter pipettor such that the final concentrations of the compounds were 100 nM-0.098 nM; the addition was performed in duplicate, and meanwhile, a control was set. After another 24 (or 6) h of incubation in the cell incubator, the 4× Supplemented Lysis buffer was added at 4 μL/well to lyse the cells. After the cells were shaken for 40 min at room temperature, the Premixed antibody solutions were added at 4 μL/well, and the cells were left to stand overnight at room temperature. Fluorescence values of the cells were detected at 665 nm/620 nm using an Envision microplate reader, the four-parameter analysis was performed, the dose-response curves were fit, and DC50 (the concentration of the drug when the degradation rate reaches 50%) and Dmax (the maximum degradation rate) were calculated.

[3] = tested on: OCI-LY10 cells; test: Inhibitory activity on OCI-LY10 cell proliferation (CCK-8); type: cell-based
Procedure: as §1, with “OCI-LY10 cells” for “TMD8-BTK(C481S) cells”, “of 1×10^5” for “of 8×10^4”, “After 2.5” for “After 4”

[4] = Mouse pharmacokinetics; type: in vivo, ICR mice; details: for clearance / half-life / AUC / Cmax: ICR, mouse, plasma; for AUC: read-out: AUC; for Cmax: read-out: Cmax
Procedure: ICR mice weighing 18-22 g were randomized into groups of 9 after 3-5 days of acclimatization and then intragastrically given the test compound solution at a dose of 10 mg/kg. Plasma samples to be tested were prepared by taking blood from the orbit at time points of 15 min, 30 min, 1 h, 2 h, 3 h, 4 h, 6 h, 8 h, 10 h, and 24 h. 20 μL of each plasma sample to be detected and a standard curve sample were taken, and an acetonitrile solution containing an internal standard was added. […] Pharmacokinetic parameters were fitted using a non-compartmental model (see Table 5).

[5] = tested on: OCI-LY10-BTK(C481S) cells; test: Inhibitory activity on OCI-LY10-BTK(C481S) cell proliferation (CCK-8); type: cell-based; details: 72 h incubation, IC50 per method, unit inferred
Procedure: OCI-LY10(C481S) cells in the logarithmic growth phase were collected and added to a centrifuge tube, adjusted to a cell density of 5×10^4 cells/mL, and seeded in a 96-well plate (100 μL/well). Meanwhile, compounds were added using a nanoliter pipettor such that the final concentrations of the compounds were 5000 nM-0.31 nM; the addition was performed in duplicate, and meanwhile, a control was set. After another 72 h of incubation in the cell incubator, the detection reagent CCK-8 (manufacturer: Dojindo Laboratories, Beijing; 10 μL/well) was added. After 3 h of incubation in the cell incubator, absorbance values were detected at 450 nm using a PerkinElmer Envision microplate reader, the four-parameter analysis was performed, the dose-response curves were fit, and IC50 was calculated.

[6] = Homo sapiens, OCI-Ly10, 72 h incubation
[7] = po, 10 mg/kg, Mouse i.g. 10 mpk

Sequence of BTK (Q06187 whole entry): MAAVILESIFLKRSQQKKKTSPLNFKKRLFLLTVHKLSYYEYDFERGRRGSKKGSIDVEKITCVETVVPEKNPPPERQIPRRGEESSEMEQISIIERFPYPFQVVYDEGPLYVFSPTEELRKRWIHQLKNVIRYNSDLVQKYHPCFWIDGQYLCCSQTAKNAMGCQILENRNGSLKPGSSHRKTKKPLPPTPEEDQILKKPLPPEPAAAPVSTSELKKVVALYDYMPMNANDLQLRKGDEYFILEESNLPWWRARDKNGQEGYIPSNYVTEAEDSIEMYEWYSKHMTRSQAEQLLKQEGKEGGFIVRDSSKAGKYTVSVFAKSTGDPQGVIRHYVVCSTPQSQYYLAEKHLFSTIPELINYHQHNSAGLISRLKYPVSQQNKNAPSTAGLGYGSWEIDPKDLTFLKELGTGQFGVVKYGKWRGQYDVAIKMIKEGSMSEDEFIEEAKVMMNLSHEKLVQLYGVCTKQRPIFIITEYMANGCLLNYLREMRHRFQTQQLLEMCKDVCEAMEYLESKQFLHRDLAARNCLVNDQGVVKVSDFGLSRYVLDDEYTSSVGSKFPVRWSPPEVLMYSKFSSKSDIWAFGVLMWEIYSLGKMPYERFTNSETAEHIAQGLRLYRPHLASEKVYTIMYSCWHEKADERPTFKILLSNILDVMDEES

Structure (SMILES)	Dmax ([2]; OCI-Ly10, OCI-LY10 cells) [%]	IC50 [3, 6] [nM]	IC50 ([5]; 72 h) [nM]	also measured
CN1CCN([C@@H]2CCCN(c3cnc(C(N)=O)c(Nc4ccc(C5CCN(CC6CN(c7ccc8c(C9CCC(=O)NC9=O)noc8c7)C6)CC5)cc4)n3)C2)C1=O (stereo partly shown) [Compound 9]	99	< 0.31	–	IC50 ([1]; 72 h): 1.2 nM; DC50 ([2]; OCI-LY10 cells): < 0.098 nM; clearance ([4]; iv, 1 mg/kg, Mouse i.v. 1 mpk): 5.52 mL/min/kg; half-life ([4]; iv, 1 mg/kg, Mouse i.v. 1 mpk): 1.5 h; AUC ([4]; iv, 1 mg/kg, Mouse i.v. 1 mpk): 2970 ng·h/mL; half-life [4, 7]: 2.6 h; AUC [4, 7]: 13700 ng·h/mL; Cmax [4, 7]: 1390 ng/mL; F ([4]; Mouse i.g. 10 mpk): 46.10%
CN1CCN([C@@H]2CCCN(c3cnc(C(N)=O)c(Nc4ccc(C5CCN(C[C@@H]6CCC(n7ccc8c9c(C%10CCC(=O)NC%10=O)noc9ccc87)C6)CC5)cc4)n3)C2)C1=O (stereo partly shown) [Compound 15]	–	–	–	DC50 ([2]; OCI-LY10 cells): < 0.098 nM; BTK degradation in OCI-LY10 cells Dmax ([2]; OCI-LY10 cells): 100%; IC50 [5]: < 0.31 nM; IC50 ([3]; 72 h incubation): < 0.31 nM
CN1CCN([C@@H]2CCCN(c3cnc(C(N)=O)c(Nc4ccc(N5CCC(CN6Cc7ccc8c(C9CCC(=O)NC9=O)noc8c7C6)CC5)cc4)n3)C2)C1=O (stereo partly shown) [Compound 24]	> 90	< 0.31	0.5	–
CN1CCN([C@@H]2CCCN(c3cnc(C(N)=O)c(Nc4ccc(N5CCC(CN6CCc7ccc8c(C9CCC(=O)NC9=O)noc8c7C6)CC5)cc4)n3)C2)C1=O (stereo partly shown) [Compound 26]	> 90	< 0.31	0.26	–
CN1CCN([C@@H]2CCCN(c3cnc(C(N)=O)c(Nc4ccc(N5CCC(CN6CCc7c(ccc8c(C9CCC(=O)NC9=O)noc78)C6)CC5)cc4)n3)C2)C1=O (stereo partly shown) [Compound 28]	> 90	< 0.31	0.29	–
CN1CCN([C@@H]2CCCN(c3cnc(C(N)=O)c(Nc4ccc(N5CCC(CN6Cc7cc8onc(C9CCC(=O)NC9=O)c8cc7C6)CC5)cc4)n3)C2)C1=O (stereo partly shown) [Compound 29]	> 90	< 0.31	0.35	–
CN1CCN([C@@H]2CCCN(c3cnc(C(N)=O)c(Nc4ccc(N5CCC(N6Cc7ccc8c(C9CCC(=O)NC9=O)noc8c7C6)CC5)cc4)n3)C2)C1=O (stereo partly shown) [Compound 30]	–	< 0.31	–	Dmax ([2]; OCI-LY10 cells): > 90%; IC50 [5]: 0.44 nM
CN1CCN([C@@H]2CCCN(c3cnc(C(N)=O)c(Nc4ccc(N5CCC(N6CCc7ccc8c(C9CCC(=O)NC9=O)noc8c7C6)CC5)cc4)n3)C2)C1=O (stereo partly shown) [Compound 34]	97	< 0.31	0.19	DC50 ([2]; OCI-LY10 cells): < 0.098 nM
CN1CCN([C@@H]2CCCN(c3cnc(C(N)=O)c(Nc4ccc(N5CCC(N6CCc7c(ccc8c(C9CCC(=O)NC9=O)noc78)C6)CC5)cc4)n3)C2)C1=O (stereo partly shown) [Compound 35]	> 90	< 0.31	0.12	–
CN1CCN([C@@H]2CCCN(c3cnc(C(N)=O)c(Nc4ccc(N5CCC(N6CCc7ccc8c(C9CCC(=O)NC9=O)noc8c7CC6)CC5)cc4)n3)C2)C1=O (stereo partly shown) [Compound 36]	95	< 0.31	0.024	DC50 ([2]; OCI-LY10 cells): < 0.098 nM
CN1CCN([C@@H]2CCCN(c3cnc(C(N)=O)c(Nc4ccc5c(c4)CCN(CC4Cc6ccc7c(C8CCC(=O)NC8=O)noc7c6C4)C5)n3)C2)C1=O (stereo partly shown) [Compound 40]	> 90	–	0.51	–
CN1CCN([C@@H]2CCCN(c3cnc(C(N)=O)c(Nc4ccc5c(c4)CCN(CC4Cc6ccc7c(C8CCC(=O)NC8=O)noc7c6C4)C5)n3)C2)C1=O (stereo partly shown) [Compound 41]	–	< 0.31	–	BTK degradation in OCI-LY10 cells Dmax ([2]; OCI-LY10 cells): >90%; IC50 [5]: 0.34 nM
CN1CCN([C@@H]2CCCN(c3cnc(C(N)=O)c(Nc4ccc5c(c4)CN(CC4Cc6ccc7c(C8CCC(=O)NC8=O)noc7c6C4)C5)n3)C2)C1=O (stereo partly shown) [Compound 44]	> 90	–	0.56	–
CN1CCN([C@@H]2CCCN(c3cnc(C(N)=O)c(Nc4ccc5c(c4)CN(C4CN(CC6Cc7ccc8c(C9CCC(=O)NC9=O)noc8c7C6)C4)C5)n3)C2)C1=O (stereo partly shown) [Compound 46]	> 90	–	0.66	–
CN1CCN([C@@H]2CCCN(c3cnc(C(N)=O)c(Nc4ccc5c(c4)CN(C4CN(CC6Cc7ccc8c(C9CCC(=O)NC9=O)noc8c7C6)C4)C5)n3)C2)C1=O (stereo partly shown) [Compound 47]	–	–	–	BTK degradation in OCI-LY10 cells Dmax ([2]; OCI-LY10 cells): >90%; IC50 [5]: 0.62 nM
CN1CCN([C@@H]2CCCN(c3cnc(C(N)=O)c(Nc4ccc5c(c4)CCC4(CCN(CC6Cc7ccc8c(C9CCC(=O)NC9=O)noc8c7C6)CC4)O5)n3)C2)C1=O (stereo partly shown) [Compound 77]	> 90	< 0.31	–	IC50 ([1]; 72 h): 23 nM
CN1CCN([C@@H]2CCCN(c3cnc(C(N)=O)c(Nc4ccc(C5CC6CCCC(C5)N6C5Cc6ccc7c(C8CCC(=O)NC8=O)noc7c6C5)cc4)n3)C2)C1=O (stereo partly shown) [Compound 79]	> 90	< 0.31	–	IC50 ([1]; 72 h): 12 nM
CN1CCN([C@@H]2CCCN(c3cnc(C(N)=O)c(Nc4ccc(C5CC6CCCC(C5)N6C5Cc6ccc7c(C8CCC(=O)NC8=O)noc7c6C5)cc4)n3)C2)C1=O (stereo partly shown) [Compound 80]	–	–	–	IC50 [1]: 11 nM; BTK degradation in OCI-LY10 cells Dmax ([2]; OCI-LY10 cells): >90%; IC50 ([3]; 72 h incubation): < 0.31 nM
CN1CCN([C@@H]2CCCN(c3cnc(C(N)=O)c(Nc4ccc(C5CC6CCCC(C5)N6CC5Cc6ccc7c(C8CCC(=O)NC8=O)noc7c6C5)cc4)n3)C2)C1=O (stereo partly shown) [Compound 81]	> 90	< 0.31	–	IC50 ([1]; 72 h): 11 nM
CN1CCN([C@@H]2CCCN(c3cnc(C(N)=O)c(Nc4ccc(C5CC6CCCC(C5)N6CC5Cc6ccc7c(C8CCC(=O)NC8=O)noc7c6C5)cc4)n3)C2)C1=O (stereo partly shown) [Compound 82]	–	–	–	IC50 [1]: 11 nM; BTK degradation in OCI-LY10 cells Dmax ([2]; OCI-LY10 cells): >90%; IC50 ([3]; 72 h incubation): < 0.31 nM
CN1CCN([C@@H]2CCCN(c3cnc(C(N)=O)c(Nc4ccc(C5CCN(C6Cc7ccc8c(C9CCC(=O)NC9=O)noc8c7C6)CC5)cc4)n3)C2)C1=O (stereo partly shown) [Compound 87]	> 90	< 0.31	–	IC50 [1]: 11 nM
CN1CCN([C@@H]2CCCN(c3cnc(C(N)=O)c(Nc4ccc(C5CCN(CC6Cc7ccc8c(C9CCC(=O)NC9=O)noc8c7C6)CC5)cc4)n3)C2)C1=O (stereo partly shown) [Compound 89]	> 90	< 0.31	–	IC50 [1]: 20 nM; clearance ([4]; iv, 1 mg/kg, Mouse i.v. 1 mpk): 1.72 mL/min/kg; half-life ([4]; iv, 1 mg/kg, Mouse i.v. 1 mpk): 2.8 h; AUC ([4]; iv, 1 mg/kg, Mouse i.v. 1 mpk): 9700 ng·h/mL; half-life [4, 7]: 3 h; AUC [4, 7]: 23700 ng·h/mL; Cmax [4, 7]: 1880 ng/mL; F ([4]; Mouse i.g. 10 mpk): 24.5%
NC(=O)c1ncc(N2CCCCC2)nc1Nc1ccc(C2CCN(C[C@@H]3CCC(n4ccc5c6c(C7CCC(=O)NC7=O)noc6ccc54)C3)CC2)cc1 (stereo partly shown) [Compound 97]	> 90	–	0.78	–
CN1CCN([C@@H]2CCCN(c3cnc(C(N)=O)c(Nc4ccc(C5CCN([C@H]6C[C@@H](n7ccc8c9c(C%10CCC(=O)NC%10=O)noc9ccc87)C6)CC5)cc4)n3)C2)C1=O (stereo partly shown) [Compound 100]	> 90	< 0.31	–	IC50 ([1]; 72 h): 0.57 nM
